Assay results: ChEMBL document CHEMBL4673392, “Discovery of a Novel Series of Potent and Selective Alkynylthiazole-Derived PI3Kγ Inhibitors” (ACS Med Chem Lett, 2021)

Experiments:
[1] = molecular target: T1, Phosphatidylinositol 4,5-bisphosphate 3-kinase catalytic subunit gamma isoform (Homo sapiens, UniProt P48736); assay: Inhibition of PI3Kgamma (unknown origin) using PIP2 as substrate measured after 15 mins in presence of [33P]-ATP by liquid scintillation counting method
[2] = molecular target: T1, Phosphatidylinositol 4,5-bisphosphate 3-kinase catalytic subunit gamma isoform; assay: Inhibition of PI3Kgamma in human THP-1 cells assessed as reduction in Akt phosphorylation at Ser473 residue; format: cell-based
[3] = molecular target: Cyclin-dependent kinase 2 (Homo sapiens, UniProt P24941); assay: Inhibition of CDK2 (unknown origin)
[4] = molecular target: T2, Receptor-type tyrosine-protein kinase FLT3 (Homo sapiens, UniProt P36888); assay: Inhibition of FLT3 (unknown origin)
T2 sequence (P36888 whole entry): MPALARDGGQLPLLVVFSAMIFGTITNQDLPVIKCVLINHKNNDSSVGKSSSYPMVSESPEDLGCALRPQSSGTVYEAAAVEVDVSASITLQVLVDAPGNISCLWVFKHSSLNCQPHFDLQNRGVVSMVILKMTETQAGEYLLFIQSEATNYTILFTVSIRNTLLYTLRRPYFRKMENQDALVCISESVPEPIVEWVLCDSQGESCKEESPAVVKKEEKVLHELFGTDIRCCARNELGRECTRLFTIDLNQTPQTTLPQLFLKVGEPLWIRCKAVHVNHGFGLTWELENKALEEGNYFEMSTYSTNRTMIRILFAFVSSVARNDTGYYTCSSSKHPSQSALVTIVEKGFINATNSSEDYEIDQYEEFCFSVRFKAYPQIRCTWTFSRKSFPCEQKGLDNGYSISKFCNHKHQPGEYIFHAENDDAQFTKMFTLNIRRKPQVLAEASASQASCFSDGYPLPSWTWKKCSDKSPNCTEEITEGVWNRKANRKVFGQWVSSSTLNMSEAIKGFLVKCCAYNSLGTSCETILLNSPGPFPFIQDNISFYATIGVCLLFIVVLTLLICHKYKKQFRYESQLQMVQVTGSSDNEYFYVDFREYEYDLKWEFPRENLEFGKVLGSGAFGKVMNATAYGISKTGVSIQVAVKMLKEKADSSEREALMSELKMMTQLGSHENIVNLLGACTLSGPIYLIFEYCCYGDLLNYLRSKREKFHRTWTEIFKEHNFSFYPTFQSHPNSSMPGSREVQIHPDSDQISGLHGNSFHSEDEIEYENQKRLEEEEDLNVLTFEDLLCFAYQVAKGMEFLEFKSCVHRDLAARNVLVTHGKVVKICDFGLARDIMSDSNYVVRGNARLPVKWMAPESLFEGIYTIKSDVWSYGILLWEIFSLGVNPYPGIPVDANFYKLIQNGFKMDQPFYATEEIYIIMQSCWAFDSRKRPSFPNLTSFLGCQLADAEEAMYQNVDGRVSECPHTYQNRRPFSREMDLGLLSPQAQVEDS

[5] = molecular target: Glycogen synthase kinase-3 beta (Homo sapiens, UniProt P49841); assay: Inhibition of GSK3B (unknown origin)
[6] = molecular target: T3, Interleukin-1 receptor-associated kinase 4 (Homo sapiens, UniProt Q9NWZ3); assay: Inhibition of IRAK4 (unknown origin)
T3 sequence (Q9NWZ3 whole entry): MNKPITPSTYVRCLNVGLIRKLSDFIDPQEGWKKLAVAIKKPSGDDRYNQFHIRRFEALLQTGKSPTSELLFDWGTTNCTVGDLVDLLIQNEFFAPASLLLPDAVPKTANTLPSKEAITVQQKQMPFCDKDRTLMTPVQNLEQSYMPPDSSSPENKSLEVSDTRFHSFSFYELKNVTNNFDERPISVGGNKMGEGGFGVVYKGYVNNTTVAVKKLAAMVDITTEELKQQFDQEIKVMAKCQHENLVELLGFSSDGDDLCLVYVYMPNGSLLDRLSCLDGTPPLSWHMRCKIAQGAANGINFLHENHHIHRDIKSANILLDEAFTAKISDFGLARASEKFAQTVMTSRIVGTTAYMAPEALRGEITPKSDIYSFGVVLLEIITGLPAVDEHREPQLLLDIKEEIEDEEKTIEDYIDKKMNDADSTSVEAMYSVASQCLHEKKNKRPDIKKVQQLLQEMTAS

[7] = molecular target: Tyrosine-protein kinase JAK2 (Homo sapiens, UniProt O60674); assay: Inhibition of JAK2 (unknown origin)
[8] = molecular target: Mitogen-activated protein kinase 10 (Homo sapiens, UniProt P53779); assay: Inhibition of JNK3 (unknown origin)
[9] = molecular target: Vascular endothelial growth factor receptor 2 (Homo sapiens, UniProt P35968); assay: Inhibition of KDR (unknown origin)
[10] = molecular target: Serine/threonine-protein kinase PLK1 (Homo sapiens, UniProt P53350); assay: Inhibition of PLK1 (unknown origin)
[11] = molecular target: Rho-associated protein kinase 1 (Homo sapiens, UniProt Q13464); assay: Inhibition of ROCK1 (unknown origin)
[12] = molecular target: Proto-oncogene tyrosine-protein kinase Src (Homo sapiens, UniProt P12931); assay: Inhibition of SRC (unknown origin)
[13] = molecular target: Tyrosine-protein kinase SYK (Homo sapiens, UniProt P43405); assay: Inhibition of SYK (unknown origin)
Mus musculus = assay: Antiinflammatory activity against Balb/c mouse air pouch model assessed as decrease in IL-8 stimulated neutrophil recruitment in air pouch at 50 mg/kg, po treated for 1 hr prior to IL-8 administration and measured after 4 hrs by FACS analysis; format: functional; settings: time 5 hrs
[14] = molecular target: Phosphatidylinositol 4,5-bisphosphate 3-kinase catalytic subunit alpha isoform (Homo sapiens, UniProt P42336); assay: Inhibition of PI3Kalpha (unknown origin) using PIP2 as substrate measured after 15 mins in presence of [33P]-ATP by liquid scintillation counting method

Serine/threonine-protein kinase PLK1, sequence (P53350 whole entry): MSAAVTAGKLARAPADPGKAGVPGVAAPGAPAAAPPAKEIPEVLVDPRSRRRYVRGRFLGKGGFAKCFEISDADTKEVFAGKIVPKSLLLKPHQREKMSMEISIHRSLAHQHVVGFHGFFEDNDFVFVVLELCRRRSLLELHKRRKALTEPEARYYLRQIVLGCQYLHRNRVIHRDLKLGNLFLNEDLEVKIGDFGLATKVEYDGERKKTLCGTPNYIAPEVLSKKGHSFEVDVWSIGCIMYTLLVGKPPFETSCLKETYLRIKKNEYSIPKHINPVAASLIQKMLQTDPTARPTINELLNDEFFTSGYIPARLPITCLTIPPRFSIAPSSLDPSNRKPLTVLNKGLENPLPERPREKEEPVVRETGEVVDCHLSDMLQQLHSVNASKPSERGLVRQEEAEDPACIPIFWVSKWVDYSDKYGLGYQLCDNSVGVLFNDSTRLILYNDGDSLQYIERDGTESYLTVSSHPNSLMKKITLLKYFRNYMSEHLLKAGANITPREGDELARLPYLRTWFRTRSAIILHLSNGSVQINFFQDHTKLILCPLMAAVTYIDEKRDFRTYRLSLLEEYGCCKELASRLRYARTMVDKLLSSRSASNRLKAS
Proto-oncogene tyrosine-protein kinase Src, sequence (P12931 2-536 limits assumed): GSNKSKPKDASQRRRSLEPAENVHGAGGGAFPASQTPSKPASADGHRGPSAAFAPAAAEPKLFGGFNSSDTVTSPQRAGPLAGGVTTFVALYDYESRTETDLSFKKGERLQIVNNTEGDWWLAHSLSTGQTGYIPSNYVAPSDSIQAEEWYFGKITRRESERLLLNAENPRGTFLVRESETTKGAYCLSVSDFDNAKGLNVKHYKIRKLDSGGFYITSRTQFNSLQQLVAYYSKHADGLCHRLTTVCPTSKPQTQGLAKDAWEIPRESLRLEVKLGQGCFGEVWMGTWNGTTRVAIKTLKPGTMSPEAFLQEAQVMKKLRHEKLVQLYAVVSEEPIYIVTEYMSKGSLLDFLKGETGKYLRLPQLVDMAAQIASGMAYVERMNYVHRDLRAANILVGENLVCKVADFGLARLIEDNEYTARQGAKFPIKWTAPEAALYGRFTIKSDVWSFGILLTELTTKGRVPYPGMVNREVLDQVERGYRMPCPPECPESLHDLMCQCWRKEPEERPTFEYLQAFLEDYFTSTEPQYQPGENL
Rho-associated protein kinase 1, sequence (Q13464 whole entry): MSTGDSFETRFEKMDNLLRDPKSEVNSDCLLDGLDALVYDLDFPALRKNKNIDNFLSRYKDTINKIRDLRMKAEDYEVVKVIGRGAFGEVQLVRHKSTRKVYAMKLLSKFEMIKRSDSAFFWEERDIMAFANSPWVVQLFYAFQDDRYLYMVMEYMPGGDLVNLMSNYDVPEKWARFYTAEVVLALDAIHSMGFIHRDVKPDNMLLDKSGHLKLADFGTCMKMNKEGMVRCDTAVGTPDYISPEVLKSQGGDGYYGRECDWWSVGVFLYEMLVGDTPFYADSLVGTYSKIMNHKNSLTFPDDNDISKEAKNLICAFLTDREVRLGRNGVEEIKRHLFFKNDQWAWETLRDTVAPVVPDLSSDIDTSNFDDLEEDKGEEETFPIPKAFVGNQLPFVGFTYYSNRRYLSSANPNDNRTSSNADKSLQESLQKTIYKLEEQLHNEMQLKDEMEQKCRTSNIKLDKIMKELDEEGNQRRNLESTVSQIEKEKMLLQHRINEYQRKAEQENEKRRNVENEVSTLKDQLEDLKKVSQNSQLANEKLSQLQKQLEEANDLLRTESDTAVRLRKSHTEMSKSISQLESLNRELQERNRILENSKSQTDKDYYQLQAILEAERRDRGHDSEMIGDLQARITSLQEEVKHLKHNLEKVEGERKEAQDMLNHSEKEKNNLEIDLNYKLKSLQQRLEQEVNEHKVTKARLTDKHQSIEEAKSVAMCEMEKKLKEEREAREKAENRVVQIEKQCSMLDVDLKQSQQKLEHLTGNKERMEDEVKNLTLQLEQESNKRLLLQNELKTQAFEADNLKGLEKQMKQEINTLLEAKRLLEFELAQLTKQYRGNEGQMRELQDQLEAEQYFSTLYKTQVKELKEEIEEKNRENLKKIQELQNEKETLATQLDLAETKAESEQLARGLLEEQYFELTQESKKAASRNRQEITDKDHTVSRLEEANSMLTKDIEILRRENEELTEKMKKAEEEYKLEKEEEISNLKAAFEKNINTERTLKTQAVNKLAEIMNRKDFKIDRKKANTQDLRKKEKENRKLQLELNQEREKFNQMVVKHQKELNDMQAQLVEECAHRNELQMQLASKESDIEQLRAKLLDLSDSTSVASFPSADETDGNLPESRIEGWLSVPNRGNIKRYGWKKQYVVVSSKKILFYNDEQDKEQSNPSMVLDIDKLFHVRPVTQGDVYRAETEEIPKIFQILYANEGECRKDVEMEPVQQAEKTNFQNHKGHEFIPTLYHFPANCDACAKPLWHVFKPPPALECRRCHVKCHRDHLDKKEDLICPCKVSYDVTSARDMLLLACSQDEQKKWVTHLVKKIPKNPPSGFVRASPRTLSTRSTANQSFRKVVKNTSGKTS
Glycogen synthase kinase-3 beta, sequence (P49841 whole entry): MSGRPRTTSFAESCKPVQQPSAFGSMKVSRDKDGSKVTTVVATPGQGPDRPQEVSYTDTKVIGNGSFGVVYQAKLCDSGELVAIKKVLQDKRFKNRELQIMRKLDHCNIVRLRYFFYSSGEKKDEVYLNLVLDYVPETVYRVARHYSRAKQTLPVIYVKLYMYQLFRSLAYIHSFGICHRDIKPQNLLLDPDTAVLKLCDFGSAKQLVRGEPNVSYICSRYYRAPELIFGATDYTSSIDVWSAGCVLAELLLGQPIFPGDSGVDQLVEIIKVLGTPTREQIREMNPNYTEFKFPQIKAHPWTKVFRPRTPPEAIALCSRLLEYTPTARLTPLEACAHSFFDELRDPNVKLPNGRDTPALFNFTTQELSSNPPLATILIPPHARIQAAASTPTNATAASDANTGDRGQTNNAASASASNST
Vascular endothelial growth factor receptor 2, sequence (P35968 whole entry): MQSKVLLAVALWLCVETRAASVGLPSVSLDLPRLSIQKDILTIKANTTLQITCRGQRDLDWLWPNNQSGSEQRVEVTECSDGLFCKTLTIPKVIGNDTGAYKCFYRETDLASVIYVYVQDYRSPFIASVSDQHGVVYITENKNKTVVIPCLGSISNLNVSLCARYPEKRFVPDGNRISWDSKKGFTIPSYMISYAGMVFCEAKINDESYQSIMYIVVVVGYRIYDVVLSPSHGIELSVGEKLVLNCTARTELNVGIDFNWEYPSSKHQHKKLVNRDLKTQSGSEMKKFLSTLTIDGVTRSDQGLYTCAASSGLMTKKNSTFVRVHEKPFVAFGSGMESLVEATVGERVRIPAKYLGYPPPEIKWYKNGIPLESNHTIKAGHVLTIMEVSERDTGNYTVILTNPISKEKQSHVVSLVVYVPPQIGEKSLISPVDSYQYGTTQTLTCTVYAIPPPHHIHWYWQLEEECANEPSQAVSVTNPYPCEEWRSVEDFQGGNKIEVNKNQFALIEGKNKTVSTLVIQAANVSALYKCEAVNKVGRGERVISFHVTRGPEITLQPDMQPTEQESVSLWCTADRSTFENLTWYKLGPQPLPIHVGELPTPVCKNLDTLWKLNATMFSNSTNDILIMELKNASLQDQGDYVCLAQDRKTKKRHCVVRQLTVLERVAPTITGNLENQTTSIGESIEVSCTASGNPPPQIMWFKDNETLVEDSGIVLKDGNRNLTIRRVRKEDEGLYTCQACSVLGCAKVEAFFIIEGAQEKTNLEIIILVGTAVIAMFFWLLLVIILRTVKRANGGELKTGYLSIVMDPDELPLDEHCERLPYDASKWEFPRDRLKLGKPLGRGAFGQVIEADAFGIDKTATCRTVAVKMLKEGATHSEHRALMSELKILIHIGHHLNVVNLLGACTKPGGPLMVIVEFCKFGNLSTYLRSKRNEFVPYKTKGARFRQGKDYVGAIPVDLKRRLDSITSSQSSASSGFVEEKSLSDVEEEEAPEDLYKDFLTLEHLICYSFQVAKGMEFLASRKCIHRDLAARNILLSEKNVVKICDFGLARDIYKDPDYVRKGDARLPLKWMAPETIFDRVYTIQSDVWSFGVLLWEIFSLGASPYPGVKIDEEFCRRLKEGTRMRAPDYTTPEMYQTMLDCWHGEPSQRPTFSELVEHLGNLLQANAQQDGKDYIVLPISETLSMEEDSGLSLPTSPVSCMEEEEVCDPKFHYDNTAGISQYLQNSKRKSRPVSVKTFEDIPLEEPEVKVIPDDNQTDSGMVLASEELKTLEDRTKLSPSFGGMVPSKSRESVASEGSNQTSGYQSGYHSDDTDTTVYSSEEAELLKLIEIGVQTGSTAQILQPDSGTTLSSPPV
Mitogen-activated protein kinase 10, sequence (P53779 whole entry): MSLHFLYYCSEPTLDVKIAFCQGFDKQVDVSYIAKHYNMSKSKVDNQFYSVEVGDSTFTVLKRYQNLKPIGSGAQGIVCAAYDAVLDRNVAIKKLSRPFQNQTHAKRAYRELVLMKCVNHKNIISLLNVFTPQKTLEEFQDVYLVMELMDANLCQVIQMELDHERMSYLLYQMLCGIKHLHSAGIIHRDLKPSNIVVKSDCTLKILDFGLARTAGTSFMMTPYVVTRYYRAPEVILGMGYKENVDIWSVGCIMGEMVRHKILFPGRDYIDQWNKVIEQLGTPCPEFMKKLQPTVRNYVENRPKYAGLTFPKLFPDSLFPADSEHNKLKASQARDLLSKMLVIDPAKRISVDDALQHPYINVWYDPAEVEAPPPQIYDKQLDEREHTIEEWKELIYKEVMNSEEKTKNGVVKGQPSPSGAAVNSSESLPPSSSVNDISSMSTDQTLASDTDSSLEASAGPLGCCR

`Cc1nc(NC(=O)NCCOCC2CC2)sc1C#Cc1ccnc2ccccc12` gave a Ki [1] of 0.006 µM and an IC50 [2] of 0.29 µM.
`COc1cc(C#Cc2sc(NC(=O)NCCOCC3CC3)nc2C)cnc1OC` gave a Ki [1] of 0.003 µM, an IC50 [2] of 0.18 µM and a Ki [3] of over 4 µM. It also gave a Ki [4] of over 4 µM, a Ki [5] of over 4 µM and a Ki [6] of over 4 µM. The Ki [7] was over 4 µM, the Ki [8] was over 4 µM and the Ki [9] was over 4 µM. It also gave a Ki [10] of over 4 µM, a Ki [11] of over 4 µM and a Ki [12] of over 4 µM. For the same molecule, the Ki [13] was over 4 µM and the inhibition in vivo at 50 mg/kg (Mus musculus) was 85%.
In the case of `Cc1nc(NC(=O)NCCc2cn(CC(F)F)cn2)sc1C#Cc1cccnc1`, the Ki [1] is reported as 0.004 µM, the Ki [14] is reported as 0.252 µM and the IC50 [2] is reported as 0.13 µM. It also gave a Ki [3] of over 4 µM, a Ki [4] of over 4 µM and a Ki [5] of over 4 µM. It also gave a Ki [6] of over 4 µM, a Ki [7] of over 4 µM and a Ki [8] of over 4 µM. The Ki [9] was over 4 µM, the Ki [10] was over 4 µM and the Ki [11] was over 4 µM. It also gave a Ki [12] of over 4 µM and a Ki [13] of over 4 µM.
`CCCOCCNC(=O)Nc1nc(C)c(C#Cc2ccncc2)s1` showed a Ki [1] of 0.006 µM and an IC50 [2] of 0.23 µM.
Work on `CCOCCNC(=O)Nc1nc(C)c(C#Cc2ccncc2)s1` yielded a Ki [1] of 0.042 µM and an IC50 [2] of 0.56 µM.
`Cc1nc(NC(=O)NCCOCC2CC2)sc1C#Cc1cnc2ncccc2c1` gave a Ki [1] of 0.045 µM and an IC50 [2] of over 10 µM.
`COCCNC(=O)Nc1nc(C)c(C#Cc2ccncc2)s1` was tested, and the Ki [1] was 0.043 µM and the IC50 [2] was 0.76 µM.
With `Cc1nc(NC(=O)NCCOCC2CC2)sc1C#Cc1ccc2cncn2c1` the Ki [3] was over 4 µM, the Ki [4] was over 4 µM and the Ki [5] was over 4 µM. It also gave a Ki [6] of over 4 µM, a Ki [7] of over 4 µM and a Ki [8] of over 4 µM. The Ki [9] was over 4 µM, the Ki [10] was over 4 µM and the Ki [11] was over 4 µM. The Ki [12] was over 4 µM and the Ki [13] was over 4 µM.
With `Cc1nc(NC(=O)NCCOCC2CC2)sc1C#Cc1ccnc(F)c1` the Ki [1] was 0.006 µM and the IC50 [2] was 0.49 µM.
